The record followed here is US6509369B2, “Anti-inflammatory compounds” (Ortho-McNeil Pharmaceutical, Inc., priority 1997, dated 2003).

pIC50: −log10 of the molar value.

The first experiment has as its target T1, human glucocorticoid receptor (hGR) (Homo sapiens, UniProt P04150).
T1 construct: made in house; host or cells: Sf21 insect cells infected with baculovirus hGR, OR IM9 lymphoblast cell line (endogenous hGR)
T1 sequence (P04150 1-777): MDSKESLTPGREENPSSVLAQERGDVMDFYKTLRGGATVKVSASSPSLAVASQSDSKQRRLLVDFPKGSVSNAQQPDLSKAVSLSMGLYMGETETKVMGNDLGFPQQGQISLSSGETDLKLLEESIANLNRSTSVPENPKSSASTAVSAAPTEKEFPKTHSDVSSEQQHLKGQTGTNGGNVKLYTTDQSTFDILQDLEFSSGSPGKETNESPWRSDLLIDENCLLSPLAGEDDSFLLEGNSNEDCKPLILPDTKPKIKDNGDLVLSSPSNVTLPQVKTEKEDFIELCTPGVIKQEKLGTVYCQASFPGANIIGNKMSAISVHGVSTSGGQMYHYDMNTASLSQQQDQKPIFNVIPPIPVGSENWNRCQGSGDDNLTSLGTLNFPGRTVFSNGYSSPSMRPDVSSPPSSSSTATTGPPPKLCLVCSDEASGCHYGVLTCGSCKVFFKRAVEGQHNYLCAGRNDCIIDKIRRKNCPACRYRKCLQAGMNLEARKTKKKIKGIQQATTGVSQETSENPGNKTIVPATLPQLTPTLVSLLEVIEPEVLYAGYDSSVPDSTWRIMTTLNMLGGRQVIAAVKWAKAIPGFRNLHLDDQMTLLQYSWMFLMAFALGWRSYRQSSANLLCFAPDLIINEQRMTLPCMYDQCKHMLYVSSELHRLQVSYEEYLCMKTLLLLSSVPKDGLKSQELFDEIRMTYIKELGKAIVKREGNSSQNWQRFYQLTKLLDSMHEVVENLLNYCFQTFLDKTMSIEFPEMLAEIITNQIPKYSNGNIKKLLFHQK
Put plainly: human glucocorticoid receptor binding assay (displacement of 3(H) Triamcinolone acetonide).
Details: not given
As to the method: A human glucocorticoid receptor binding assay was carried out to determine the extent to which the compounds of this invention have the ability to bind to human glucocorticoid receptors. This binding ability may be indicative of the antiinflammatory activity of the compound. The test was carried out as follows.
Human glucocorticoid receptors were prepared from either insect cells (Sf21) infected with baculovirus hGR or from a lymphoblast cell line which expresses high levels of endogenous hGR (IM9). The receptor binding reactions, with or without test compounds, were set up in 96-well microtiter plates which were previously siliconized with SIGMACOTE™, a chlorinated organopolysiloxane in heptane. The binding components, 3(H) Triamcinolone acetonide (TAA), glycerol/molybdate-containing buffer and unlabeled compounds were added to the wells using a combination of BIOMEK laboratory automation system and repeat pipettes. After four hours of incubation, the samples were precipitated with polyethylene glycol and filtered through Whatman GF/F paper using a TOMTEK cell harvester. The filter mate with 96 samples were bound to a solid-phase scintillant and directly counted in a BETAPLATE counter. […] The activity of test compounds to displace 3(H) TAA binding to hGR is also expressed as percent inhibition at 1 μM.
Regarding `CC(C)(C)C(=O)NCC(c1ccccc1)C(c1ccccc1)c1ccccc1` (centres unmarked) [Compound 64], the pIC50 was 6.53.
On to `CN(CC(c1ccccc1)C(c1ccccc1)c1ccccc1)C(=O)Cc1cccs1` (centres unmarked) [Compound 44], for which the pIC50 is 6.88.
Turning to `O=C(NCC(c1ccccc1)C(c1ccccc1)c1ccccc1)c1cc2ccccc2s1` (centres unmarked) [Compound 43], the negative-log IC50 (pIC50) is 6.31.
As for `O=C(CCc1ccccc1Cl)NCC(c1ccccc1)C(c1ccccc1)c1ccccc1` (centres unmarked) [Compound 22], the pIC50 is 6.99.
In the case of `O=C(NCC(c1ccccc1)C(c1ccccc1)c1ccccc1)C(c1ccccc1)c1ccccc1` (centres unmarked) [Compound 13], the pIC50 was 6.11.
Same read-out and setting: the result for `O=C(CS(=O)(=O)c1ccccc1)NCC(c1ccccc1)C(c1ccccc1)c1ccccc1` (centres unmarked) [Compound 27] reads 7.17.
For the molecule `O=C(Cc1cccs1)NCC1(c2ccccc2)CC1(c1ccccc1)c1ccccc1` (centres unmarked) [Compound 88], the pIC50 was 6.37.
As to `CCOC(=O)CC(=O)NCC(c1ccccc1)C(c1ccccc1)c1ccccc1` (centres unmarked) [Compound 65], the pIC50 is 6.03.
As for `Cc1ccc(S(=O)(=O)NCC(c2ccccc2)C(c2ccccc2)c2ccccc2)cc1` (centres unmarked) [Compound 26], the pIC50 is 6.76.
Turning to `O=C(Cc1ccsc1)NCC(c1ccc(Cl)cc1)C(c1ccccc1)c1ccccc1` (centres unmarked) [Compound 35], the negative-log IC50 (pIC50) was 7.27.
In the case of `O=C(NCC(c1ccccc1)C(c1ccccc1)c1ccccc1)Nc1ccccc1Cl` (centres unmarked) [Compound 52], the pIC50 is 6.56.
Still for that read-out and setting: the result for `O=S(=O)(Cc1ccccc1)NCC(c1ccccc1)C(c1ccccc1)c1ccccc1` (centres unmarked) [Compound 25] reads 6.68; that for `CCCC(=O)NCC(c1ccccc1)C(c1ccccc1)c1ccccc1` (centres unmarked) [Compound 60], 6.35.
For `O=C(NCC(c1ccccc1)C(c1ccccc1)c1ccccc1)Oc1ccc2ccccc2c1` (centres unmarked) [Compound 59], the pIC50 was 6.81.
As to `O=C(NCc1ccccc1)NCC(c1ccccc1)C(c1ccccc1)c1ccccc1` (centres unmarked) [Compound 54], the pIC50 is 6.66.
Turning to `O=C(Cc1cccs1)NCC(c1ccccc1)C(c1ccc(F)cc1)c1ccc(F)cc1` (centres unmarked) [Compound 31], the pIC50 was 8.10.
For the molecule `O=C(Cc1ccsc1)NCC(c1ccccc1)C1c2ccccc2CCc2ccccc21` (centres unmarked) [Compound 76], the negative-log IC50 (pIC50) was 6.24.
With `COc1ccccc1CCC(=O)NCC1(c2ccccc2)CC1(c1ccccc1)c1ccccc1` (centres unmarked) [Compound 81], the pIC50 is 6.15.
Consider `O=C(NCC(c1ccccc1)C(c1ccccc1)c1ccccc1)Oc1ccccc1` (centres unmarked) [Compound 56], for which the pIC50 is 6.51.
As to `O=C(Cc1ccc(Cl)c(Cl)c1)NCC(c1ccccc1)C(c1ccccc1)c1ccccc1` (centres unmarked) [Compound 9], the pIC50 was 5.83.
Same read-out and setting: the result for `COc1ccc(CC(=O)NCC(c2ccccc2)C(c2ccccc2)c2ccccc2)cc1` (centres unmarked) [Compound 6] reads 6.04; that for `O=C(Cc1ccccc1)NCC(c1ccccc1)C1c2ccccc2CCc2ccccc21` (centres unmarked) [Compound 73], 6.11; that for `O=C(C=Cc1ccsc1)NCC(c1ccccc1)C(c1ccccc1)c1ccccc1` (centres unmarked) [Compound 39], 6.14.
As for `O=C(C=Cc1cccs1)NCC(c1ccccc1)C(c1ccccc1)c1ccccc1` (centres unmarked) [Compound 38], the pIC50 was 6.72.
The same measure, in the same setting: the result for `O=C(Cc1cccs1)NCC(c1ccc(I)cc1)C(c1ccccc1)c1ccccc1` (centres unmarked) [Compound 33] reads 8.07; that for `O=C(Cc1cccs1)NCC(c1ccccc1)C1c2ccccc2CCc2ccccc21` (centres unmarked) [Compound 75], 6.44; that for `Cc1ccc(C(=O)NCC(c2ccccc2)C(c2ccccc2)c2ccccc2)s1` (centres unmarked) [Compound 30], 7.30.
Consider `CC(C)C(=O)NCC(c1ccccc1)C(c1ccccc1)c1ccccc1` (centres unmarked) [Compound 61], for which the pIC50 is 6.23.
As to `Cc1ccc(C(=O)NCC(c2ccccc2)C2c3ccccc3CCc3ccccc32)s1` (centres unmarked) [Compound 77], the negative logarithm of the IC50 (pIC50) is 6.05.
On the same count and under the same terms, the result for `Cc1ccc(C(=O)NCC2(c3ccccc3)CC2(c2ccccc2)c2ccccc2)s1` (centres unmarked) [Compound 91] reads 6.38; that for `O=C(NCC(c1ccccc1)C(c1ccccc1)c1ccccc1)Oc1ccc(F)cc1` (centres unmarked) [Compound 58], 6.62.
On to `O=S(=O)(NCC(c1ccc(Cl)cc1)C(c1ccccc1)c1ccccc1)c1cccs1` (centres unmarked) [Compound 41], for which the pIC50 was 6.31.
For the molecule `O=C(NCC1(c2ccccc2)CC1(c1ccccc1)c1ccccc1)c1cccs1` (centres unmarked) [Compound 90], the pIC50 is 6.21.
With `CCCCC(=O)NCC(c1ccccc1)C(c1ccccc1)c1ccccc1` (centres unmarked) [Compound 62], the pIC50 was 6.92.
Turning to `COc1ccccc1CCC(=O)NCC(c1ccccc1)C1c2ccccc2CCc2ccccc21` (centres unmarked) [Compound 74], the pIC50 is 6.41.
On to `O=C(NCc1ccc(Cl)cc1Cl)NCC(c1ccccc1)C(c1ccccc1)c1ccccc1` (centres unmarked) [Compound 55], for which the pIC50 was 6.92.
`O=C(NCC(c1ccccc1)C(c1ccccc1)c1ccccc1)Nc1ccccc1F` (centres unmarked) [Compound 53]: the pIC50 is 6.53.
`Cc1ccc(S(=O)(=O)CC(=O)NCC(c2ccccc2)C(c2ccccc2)c2ccccc2)cc1` (centres unmarked) [Compound 28]: the pIC50 is 7.24.
In the case of `CC(C)CC(=O)NCC(c1ccccc1)C(c1ccccc1)c1ccccc1` (centres unmarked) [Compound 63], the negative-log IC50 (pIC50) is 6.50.

The experiment is the same for the next values; noted with them: concentration not given.
In the case of `COc1ccccc1NC(=O)NCC(c1ccccc1)C(c1ccccc1)c1ccccc1` (centres unmarked) [Compound 51], the “hGR, value given as %” value turned out to be 32%.
On to `COc1ccccc1CCC(=O)NCC(c1ccccc1)C1c2ccccc2-c2ccccc21` (centres unmarked) [Compound 70], for which the “hGR, value given as %” value stood at 53%.
For the molecule `COc1ccccc1CC(=O)NCC(c1ccccc1)C1c2ccccc2-c2ccccc21` (centres unmarked) [Compound 67], the “hGR, value given as %” value is on record as 23%.

For the next experiment, the system named is oxazolone-induced ear swelling (MOCH) in albino male CD-1 mice. Put plainly: mouse oxazolone-induced contact hypersensitization (MOCH) ear swelling. Type of experiment: in vivo. Also on record: % Inhibition MOCH: concentration or dose not given beside the values. The following applies: mouse, in vivo. On the procedure: Several triphenylpropanamide compounds of this invention, having varying affinities for the human glucocorticoid receptor, were tested for topical antiinflammatory activity in mouse ear inflammation models. […] Compounds having receptor affinities closer to hydrocortisone were as nearly active as hydrocortisone in suppressing mouse oxazolone-induced contact hypersensitization (MOCH) and phorbol ester-induced ear edema. The in vivo studies of this example were conducted as follows.
In determining the MOCH using the compounds of this invention, albino male CD-1 mice, 7-9 weeks old were induced on the shaved abdomen with 50 μl of 3% oxazolone in acetone/corn oil (Day 0). On Day 5, a 20 μl volume of 2% oxazolone in acetone was applied to the dorsal left ear of the mouse . Compounds (made in ethanol/propylene glycol, 70:30) were applied to the left ear in 20 μl volume, one hour after oxazolone challenge. The right ear was not treated. The mice were sacrificed by carbon dioxide inhalation 24 hours after oxazolone challenge, the left and right ears were removed and a 7 mm biopsy was removed from each ear and weighed. The difference in biopsy weights between the right and left ears was calculated. Antiinflammatory effects of compounds were evident as an inhibition of the increase in ear weight.
Turning to `O=C(Cc1ccc(-c2ccccc2)cc1)NCC(c1ccc2c(c1)OCO2)C(c1ccccc1)c1ccccc1` (centres unmarked) [Compound 134], the “% Inhibition MOCH” value is reported as 29%.
Still for that read-out and setting: the result for `COc1cc(Cl)ccc1C(=O)NCC(c1ccc(C(F)(F)F)cc1)C(c1ccccc1)c1ccccc1` (centres unmarked) [Compound 144] reads 33%; that for `O=C(NCC(c1ccc2c(c1)OCO2)C(c1ccccc1)c1ccccc1)c1ccc(Cl)cc1` (centres unmarked) [Compound 130], 37%; that for `O=C(Cc1cc(C(F)(F)F)cc(C(F)(F)F)c1)NCC(c1ccc2c(c1)OCO2)C(c1ccccc1)c1ccccc1` (centres unmarked) [Compound 104], 52%.
Still for that read-out and setting: the result for `O=C(NCC(c1ccc(C(F)(F)F)cc1)C(c1ccccc1)c1ccccc1)c1cccs1` (centres unmarked) [Compound 136] reads 38%.
With `O=C(Cc1cc2cc(Cl)ccc2s1)NCC(c1ccc2c(c1)OCO2)C(c1ccccc1)c1ccccc1` (centres unmarked) [Compound 101], the “% Inhibition MOCH” value was 26%.
For `O=C(NCC(c1ccc2c(c1)OCO2)C(c1ccccc1)c1ccccc1)c1cccc([N+](=O)[O-])c1` (centres unmarked) [Compound 121], the “% Inhibition MOCH” value turned out to be 10%.
In the case of `O=C(NCC(c1ccc2c(c1)OCO2)C(c1ccccc1)c1ccccc1)c1cc(Cl)cc(Cl)c1` (centres unmarked) [Compound 131], the “% Inhibition MOCH” value is 18%.
On to `O=C(Cc1ccccn1)NCC(c1ccc(C(F)(F)F)cc1)C(c1ccccc1)c1ccccc1` (centres unmarked) [Compound 142], for which the “% Inhibition MOCH” value is 39%.
Turning to `O=C(Cc1ccc([N+](=O)[O-])cc1)NCC(c1ccc2c(c1)OCO2)C(c1ccccc1)c1ccccc1` (centres unmarked) [Compound 105], the “% Inhibition MOCH” value turned out to be 24%.
As for `O=C(NCC(c1ccc2c(c1)OCO2)C(c1ccccc1)c1ccccc1)c1ccsc1` (centres unmarked) [Compound 115], the “% Inhibition MOCH” value is listed as 28%.
